pEC50: −log10 of the molar value.
Assays:
[1] = Human liver microsomal stability; assay type: in vitro ADME; conditions: human liver microsomes 0.5 mg/mL, 3 μM compound, NADPH, 37° C.
Description: A 10 mM stock solution (in DMSO) was prepared for each compound. From the intermediate stock solution of 2 mM, a working solution of 0.5 mM was prepared by diluting the compound in Acetonitrile:water (50:50). The compound (1.8 μL of working solution) was spiked in 0.1 M potassium phosphate buffer (260.7 μL), pH 7.4 at a concentration of 3 μM (0.1% DMSO). Following this, human liver microsomes (pooled, Invitrogen, #HMMCPL) (7.5 μL; final protein conc. 0.5 mg/mL) were added. The aforementioned sample was incubated at 37° C. for 5 min. Subsequently, 30 μL of 10 mM NADPH prepared in 0.1 M potassium phosphate buffer was added (as a co-factor) to initiate the reaction. The samples were then incubated at 37° C. for 0, 20, 40, 60 and 120 min.
At each time point (0, 20, 40, 60 and 120 min), 40 μL of the samples were withdrawn and reactions were stopped using 360 μL chilled acetonitrile or methanol containing suitable internal standard (Carbamazepine). The samples were centrifuged and the supernatants was analyzed in duplicate by LC-MS/MS. The percent compound remaining at each time point was calculated with respect to that of the 0 min sample. Control samples were run without NADPH for initial and final time point and blank samples was prepared using DMSO (without the test compound).
For comparison, the experiment was also performed with known Trk receptor signalling modulator 1-methyl-3-[3-methyl-4-(4-trifluoromethanesulfonylphenoxy)phenyl]-1,3,5-triazinane-2,4,6-trione) (ponazuril). Ponazuril is metabolized very slowly in vivo and this prolonged exposure creates an increased risk of side effects if the compound is administered systemically. This causes significant challenges to the development of the compound as a systemic drug.

TrkA = target: T1, TrkA (Homo sapiens, UniProt P04629); experiment: In vitro Trk receptor modulation assay (Enzyme Fragment Complementation), U2OS cells over-expressing TrkA; assay type: cell-based; conditions: compound pre-mixed with ligand (NGF), final 10 ng/mL, 3 hours, modulator mode
T1 construct: expressed in transfected cells; host or cells: U2OS
Excerpt: (§1) A high throughput cell-based screen was used to identify positive modulators of TrkA and TrkB. The screen involves the use of cell-based assay overexpressing TrkA, or TrkB. The purpose of the assay is to identify compounds that modulate neurotrophin signalling (Forsell et al 2012). The assay can be used in inhibitor mode using a high concentration of ligand, in modulator mode using an intermediate concentration and in agonist mode using a low concentration of ligand.
(§2) The assay uses Enzyme Fragment Complementation (EFC) technique, which is a proximity-based assay. Briefly, cells used in this assay over-express two fusion proteins, i.e. the receptor, which can be one of TrkA or TrkB fused to a small peptide of beta-galactosidase and an adaptor protein, i.e. SHC1 (or any other Trk-adaptor protein) fused to the major part of beta-galactosidase. […] The proximity between the small activating peptide on the receptor and the major part of beta-galactosidase on the adaptor protein leads to an active beta-galactosidase enzyme. The activation of the receptor is quantified by measuring the amount of active beta-galactosidase by its conversion of a non-luminescent substrate into a luminescent product.
(§3) U2OS-cells, over-expressing TrkA or TrkB, were plated in 96- or 384-well plates and incubated overnight. On the following day, test compound was pre-mixed with ligand (NGF) and the ligand-compound mixture is then added to the cells to yield a final ligand concentration of 10 ng/mL. After 3 hours of incubation at room temperature, the incubation is stopped by the addition of a beta-galactosidase substrate mixture containing detergents. The substrate mixture is incubated for 60 minutes at ambient temperature. The luminescence is thereafter read by the use of a plate reader.

TrkB = target: T2, TrkB (Homo sapiens, UniProt Q16620); experiment: In vitro Trk receptor modulation assay (Enzyme Fragment Complementation), U2OS cells over-expressing TrkB; assay type: cell-based; conditions: compound pre-mixed with ligand (NGF), final 10 ng/mL, 3 hours, modulator mode
T2 construct: expressed in transfected cells; host or cells: U2OS
Excerpt: as §1, §2, §3

T2 sequence (Q16620 32-822): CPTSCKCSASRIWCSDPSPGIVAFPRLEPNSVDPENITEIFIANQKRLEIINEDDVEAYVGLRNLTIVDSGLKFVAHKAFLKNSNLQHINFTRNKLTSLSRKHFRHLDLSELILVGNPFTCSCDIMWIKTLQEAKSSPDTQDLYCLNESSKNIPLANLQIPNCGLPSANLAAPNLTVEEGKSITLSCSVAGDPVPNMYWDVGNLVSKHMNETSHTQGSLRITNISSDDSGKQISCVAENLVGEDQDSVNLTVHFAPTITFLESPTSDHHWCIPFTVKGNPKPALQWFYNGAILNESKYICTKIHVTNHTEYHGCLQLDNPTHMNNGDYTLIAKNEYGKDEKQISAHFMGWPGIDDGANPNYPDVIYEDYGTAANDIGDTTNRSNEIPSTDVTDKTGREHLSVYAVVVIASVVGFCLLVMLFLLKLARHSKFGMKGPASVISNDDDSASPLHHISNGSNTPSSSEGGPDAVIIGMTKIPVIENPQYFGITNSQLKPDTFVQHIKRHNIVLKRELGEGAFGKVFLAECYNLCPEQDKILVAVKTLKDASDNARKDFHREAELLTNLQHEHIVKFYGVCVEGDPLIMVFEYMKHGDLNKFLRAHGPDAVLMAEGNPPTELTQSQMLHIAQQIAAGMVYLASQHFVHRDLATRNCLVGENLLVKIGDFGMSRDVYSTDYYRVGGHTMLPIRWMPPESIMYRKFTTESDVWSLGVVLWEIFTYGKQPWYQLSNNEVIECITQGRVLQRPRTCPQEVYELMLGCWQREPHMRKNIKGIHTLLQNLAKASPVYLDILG
T1 sequence (P04629 33-796): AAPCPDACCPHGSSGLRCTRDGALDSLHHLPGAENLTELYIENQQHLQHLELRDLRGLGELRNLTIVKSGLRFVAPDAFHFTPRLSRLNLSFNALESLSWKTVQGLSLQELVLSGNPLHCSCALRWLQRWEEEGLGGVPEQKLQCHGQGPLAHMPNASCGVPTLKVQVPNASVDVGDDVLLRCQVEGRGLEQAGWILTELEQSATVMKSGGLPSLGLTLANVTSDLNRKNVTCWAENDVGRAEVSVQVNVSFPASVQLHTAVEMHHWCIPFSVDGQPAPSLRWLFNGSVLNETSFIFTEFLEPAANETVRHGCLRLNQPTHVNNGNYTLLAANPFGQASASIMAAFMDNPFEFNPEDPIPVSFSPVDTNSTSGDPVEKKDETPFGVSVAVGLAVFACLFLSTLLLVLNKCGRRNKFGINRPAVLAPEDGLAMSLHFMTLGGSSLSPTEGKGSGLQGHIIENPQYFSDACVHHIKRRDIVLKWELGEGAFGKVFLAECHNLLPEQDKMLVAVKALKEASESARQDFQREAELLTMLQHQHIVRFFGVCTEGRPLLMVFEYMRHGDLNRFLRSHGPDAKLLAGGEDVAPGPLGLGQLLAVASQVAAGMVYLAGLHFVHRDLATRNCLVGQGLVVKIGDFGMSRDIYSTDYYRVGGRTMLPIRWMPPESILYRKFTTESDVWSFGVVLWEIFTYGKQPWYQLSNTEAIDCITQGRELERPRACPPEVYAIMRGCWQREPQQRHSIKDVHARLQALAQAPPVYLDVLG

SMILES: Cc1cccc(-n2c(=O)[nH]c(=O)n(-c3ccc(Oc4ccccc4)c(CN4CCCC4=O)c3)c2=O)c1 [Example 15, 1-(3-methylphenyl)-3-{3-[(2-oxopyrrolidin-1-yl)methyl]-4-phenoxyphenyl}-1,3,5-triazinane-2,4,6-trione]
- % of parent compound metabolized after 120 min [1]: 29.6%
- pEC50 (TrkA): 7.40
- pEC50 (TrkB): 6.96

SMILES: Cc1cc(-n2c(=O)[nH]c(=O)n(C)c2=O)ccc1Oc1ccc(S(=O)(=O)C(F)(F)F)cc1 [ponazuril, 1-methyl-3-[3-methyl-4-(4-trifluoromethanesulfonylphenoxy)phenyl]-1,3,5-triazinane-2,4,6-trione, reference compound]
- % of parent compound metabolized after 120 min [1]: 3.1%

SMILES: CCc1cc(-n2c(=O)[nH]c(=O)n(-c3ccccc3)c2=O)ccc1Oc1ccccc1 [Example 6, 1-(3-ethyl-4-phenoxyphenyl)-3-phenyl-1,3,5-triazinane-2,4,6-trione]
- pEC50 (TrkA): 6.68
- pEC50 (TrkB): 6.66

SMILES: COCc1cccc(-n2c(=O)[nH]c(=O)n(-c3ccc(Oc4ccccc4)c(C)c3)c2=O)c1 [Example 2, 1-[3-(methoxymethyl)phenyl]-3-(3-methyl-4-phenoxyphenyl)-1,3,5-triazinane-2,4,6-trione]
- % of parent compound metabolized after 120 min [1]: 13.3%
- pEC50 (TrkA): 6.37
- pEC50 (TrkB): 6.59

SMILES: Cc1cccc(-n2c(=O)[nH]c(=O)n(-c3ccc(Oc4ccccc4)c(CN4CCNC4=O)c3)c2=O)c1 [Example 5, 1-(3-methylphenyl)-3-{3-[(2-oxoimidazolidin-1-yl)methyl]-4-phenoxyphenyl}-1,3,5-triazinane-2,4,6-trione]
- % of parent compound metabolized after 120 min [1]: 15.4%
- pEC50 (TrkA): 6.52
- pEC50 (TrkB): 6.92

SMILES: Cc1cccc(-n2c(=O)[nH]c(=O)n(-c3ccc(Oc4ccccc4)c(OCC(=O)N4CCCCC4)c3)c2=O)c1 [Example 10, 1-(3-methylphenyl)-3-{3-[2-oxo-2-(piperidin-1-yl)ethoxy]-4-phenoxyphenyl}-1,3,5-triazinane-2,4,6-trione]
- % of parent compound metabolized after 120 min [1]: 99.8%
- pEC50 (TrkA): 6.55
- pEC50 (TrkB): 6.49

SMILES: Cc1cccc(-n2c(=O)[nH]c(=O)n(-c3ccc(Oc4ccccc4)c(OCC(=O)N4CCC4)c3)c2=O)c1 [Example 12, 1-{3-[2-(azetidin-1-yl)-2-oxoethoxy]-4-phenoxyphenyl}-3-(3-methylphenyl)-1,3,5-triazinane-2,4,6-trione]
- pEC50 (TrkA): 6.39
- pEC50 (TrkB): 6.66

SMILES: COc1ccc(-n2c(=O)[nH]c(=O)n(-c3ccc(Oc4ccccc4)c(C)c3)c2=O)cc1 [Example 8, 1-(4-methoxyphenyl)-3-(3-methyl-4-phenoxyphenyl)-1,3,5-triazinane-2,4,6-trione]
- pEC50 (TrkA): 6.46
- pEC50 (TrkB): 6.64

SMILES: CSc1cc(-n2c(=O)[nH]c(=O)n(-c3cccc(C)c3)c2=O)ccc1Oc1ccccc1 [Example 14, 1-(3-methylphenyl)-3-[3-(methylsulfanyl)-4-phenoxyphenyl]-1,3,5-triazinane-2,4,6-trione]
- % of parent compound metabolized after 120 min [1]: 53.4%
- pEC50 (TrkA): 6.19
- pEC50 (TrkB): 6.52

SMILES: CSc1cc(-n2c(=O)[nH]c(=O)n(-c3ccccc3)c2=O)ccc1Oc1ccccc1 [Example 13, 1-[3-(methylsulfanyl)-4-phenoxyphenyl]-3-phenyl-1,3,5-triazinane-2,4,6-trione]
- % of parent compound metabolized after 120 min [1]: 4.7%
- pEC50 (TrkA): 6.19
- pEC50 (TrkB): 6.42

SMILES: Cc1cc2cccc(-n3c(=O)[nH]c(=O)n(-c4ccc(Oc5ccccc5)c(C)c4)c3=O)c2o1 [Example 4, 1-(2-methyl-1-benzofuran-7-yl)-3-(3-methyl-4-phenoxyphenyl)-1,3,5-triazinane-2,4,6-trione]
- % of parent compound metabolized after 120 min [1]: 37.7%
- pEC50 (TrkA): 6.52
- pEC50 (TrkB): 6.57

SMILES: CCc1cc(-n2c(=O)[nH]c(=O)n(-c3cccc(C)c3)c2=O)ccc1Oc1ccccc1 [Example 7, 1-(3-ethyl-4-phenoxyphenyl)-3-(3-methylphenyl)-1,3,5-triazinane-2,4,6-trione]
- % of parent compound metabolized after 120 min [1]: 48.8%
- pEC50 (TrkA): 6.89
- pEC50 (TrkB): 7.05

— patent publication US20260193219A1, “TRIAZINE DERIVATIVES FOR TREATING DISEASES RELATING TO NEUROTROPHINS” (AlzeCure Pharma AB, priority 2020, published 2026)
